What was measured:
Format in all cases: cell-based
[1] = test system: Ba/F3-KDR-transfected cells; test: Ba/F3-KDR (minus IL3 or plus IL3) cellular proliferation assay; conditions: plus 10 ng/ml murine IL3 (counterscreen); for IC50: 24 h, read-out: BAF3-KDR (PLUS IL3) pIC50 (converted)
Description: (§1) Ba/F3-KDR (Minus IL3 or Plus IL3) (Cellular Proliferation Assay)
(§2) In a 384 well plate, 100 nI of compound dilution in DMSO was sprayed before adding 50 μl cell culture medium (phenol red free RPMI-1640, 10% FBS, 2 mM L-Glutamine and 50 μg/ml Gentamycin) containing 20000 cells per well of Ba/F3-KDR-transfected cells. Cells were put in an incubator at 37° C. and 5% CO2. After 24 hours, 10 μl of Alamar Blue solution (0.5 mM K3Fe(CN)6, 0.5 mM K4Fe(CN)6, 0.15 mM Resazurin and 100 mM Phosphate Buffer) was added to the wells, incubated for 4 hours at 37° C. and 5% CO2 before RFU's (Relative Fluorescence Units) (ex. 540 nm., em. 590 nm.) were measured in a fluororescence plate reader.
(§3) In this assay, the inhibitory effect of different compound concentrations (range 10 μM to 0.1 nM) was determined and used to calculate an IC50 (M) and pIC50 (−log IC50) value. As a counterscreen the same experiment was performed in the presence of 10 ng/ml murine IL3.

[2] = target: T1, Ba/F3-KDR-transfected cells (Homo sapiens, UniProt P35968); test: as above; conditions: minus IL3
T1 construct: BAF3-KDR (MIN IL3) pIC50; other: minus IL3
Description: as §1, §2, §3

[3] = test system: Ba/F3-Flt3-transfected cells; test: Ba/F3-Flt3 (minus IL3 or plus IL3) cellular proliferation assay; conditions: plus 10 ng/ml murine IL3 (counterscreen); for IC50: 24 h, read-out: BAF3_FLT3 (PLUS IL3) pIC50 (converted)
Description: (§4) Ba/F3-Flt3 (Minus IL3 or Plus IL3) (Cellular Proliferation Assay)
as §2, with “nl” for “nI”, “Ba/F3-Flt3-transfected” for “Ba/F3-KDR-transfected”
(§5) In this assay, the inhibitory effect of different compound concentrations (range 10 μM to 0.1 nM) was determined and used to calculate an IC50 (M) and pIC50 (−log IC50) value.
(§6) As a counterscreen the same experiment was performed in the presence of 10 ng/ml murine IL3.

[4] = target: T2, Ba/F3-Flt3-transfected cells (Homo sapiens, UniProt P36888, cells depend on it, form not given); test: as above; conditions: minus IL3
T2 construct: BAF3-FLT3 (MIN IL3) pIC50; other: minus IL3
T2 sequence (P36888 1-993): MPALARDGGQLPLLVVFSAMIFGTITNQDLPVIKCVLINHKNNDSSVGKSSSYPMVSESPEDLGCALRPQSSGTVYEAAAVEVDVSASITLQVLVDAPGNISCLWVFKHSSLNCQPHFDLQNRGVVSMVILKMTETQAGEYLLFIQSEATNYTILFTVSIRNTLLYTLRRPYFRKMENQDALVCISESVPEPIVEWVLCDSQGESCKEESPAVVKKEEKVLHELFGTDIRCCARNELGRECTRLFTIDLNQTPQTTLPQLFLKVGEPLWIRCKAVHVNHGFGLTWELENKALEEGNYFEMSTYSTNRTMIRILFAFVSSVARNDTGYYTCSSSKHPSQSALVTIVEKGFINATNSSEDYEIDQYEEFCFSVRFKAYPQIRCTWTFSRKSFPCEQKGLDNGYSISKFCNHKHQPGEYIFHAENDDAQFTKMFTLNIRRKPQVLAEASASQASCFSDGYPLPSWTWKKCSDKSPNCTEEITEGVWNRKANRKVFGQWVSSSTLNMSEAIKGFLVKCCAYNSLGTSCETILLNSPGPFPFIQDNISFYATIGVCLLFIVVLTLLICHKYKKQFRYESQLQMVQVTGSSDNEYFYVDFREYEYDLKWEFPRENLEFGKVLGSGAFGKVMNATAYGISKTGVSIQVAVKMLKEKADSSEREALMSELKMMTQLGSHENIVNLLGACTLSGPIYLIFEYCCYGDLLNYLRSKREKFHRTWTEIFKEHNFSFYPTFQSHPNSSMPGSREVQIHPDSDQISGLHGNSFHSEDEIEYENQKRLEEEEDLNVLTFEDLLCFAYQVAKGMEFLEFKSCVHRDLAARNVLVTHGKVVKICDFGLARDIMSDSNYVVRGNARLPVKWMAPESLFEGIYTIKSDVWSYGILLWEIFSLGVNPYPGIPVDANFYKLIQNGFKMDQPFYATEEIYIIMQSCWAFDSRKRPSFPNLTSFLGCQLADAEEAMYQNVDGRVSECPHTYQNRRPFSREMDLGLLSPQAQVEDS
Description: as §4
as §2, with “nl” for “nI”, “Ba/F3-Flt3-transfected” for “Ba/F3-KDR-transfected”
as §5, §6

[5] = target: T3, Ba/F3-FGFR1-transfected cells (Homo sapiens, UniProt P11362); test: Ba/F3-FGFR1 (minus IL3 or plus IL3) cellular proliferation assay; conditions: minus IL3
T3 construct: BAF3-FGFR1 (MIN IL3) pIC50; other: minus IL3
Description: (§7) Ba/F3-FGFR1 (Minus IL3 or Plus IL3) (Cellular Proliferation Assay)
as §2, with “nl” for “nI”, “Ba/F3-FGFR1-transfected” for “Ba/F3-KDR-transfected”
as §5, §6

[6] = test system: Ba/F3-FGFR1-transfected cells; test: as above; conditions: plus 10 ng/ml murine IL3 (counterscreen); for IC50: 24 h, read-out: BAF3-FGFR1 (PLUS IL3) pIC50 (converted)
Description: as §7
as §2, with “nl” for “nI”, “Ba/F3-FGFR1-transfected” for “Ba/F3-KDR-transfected”
as §5, §6

T3 sequence (P11362 whole entry, change not shown): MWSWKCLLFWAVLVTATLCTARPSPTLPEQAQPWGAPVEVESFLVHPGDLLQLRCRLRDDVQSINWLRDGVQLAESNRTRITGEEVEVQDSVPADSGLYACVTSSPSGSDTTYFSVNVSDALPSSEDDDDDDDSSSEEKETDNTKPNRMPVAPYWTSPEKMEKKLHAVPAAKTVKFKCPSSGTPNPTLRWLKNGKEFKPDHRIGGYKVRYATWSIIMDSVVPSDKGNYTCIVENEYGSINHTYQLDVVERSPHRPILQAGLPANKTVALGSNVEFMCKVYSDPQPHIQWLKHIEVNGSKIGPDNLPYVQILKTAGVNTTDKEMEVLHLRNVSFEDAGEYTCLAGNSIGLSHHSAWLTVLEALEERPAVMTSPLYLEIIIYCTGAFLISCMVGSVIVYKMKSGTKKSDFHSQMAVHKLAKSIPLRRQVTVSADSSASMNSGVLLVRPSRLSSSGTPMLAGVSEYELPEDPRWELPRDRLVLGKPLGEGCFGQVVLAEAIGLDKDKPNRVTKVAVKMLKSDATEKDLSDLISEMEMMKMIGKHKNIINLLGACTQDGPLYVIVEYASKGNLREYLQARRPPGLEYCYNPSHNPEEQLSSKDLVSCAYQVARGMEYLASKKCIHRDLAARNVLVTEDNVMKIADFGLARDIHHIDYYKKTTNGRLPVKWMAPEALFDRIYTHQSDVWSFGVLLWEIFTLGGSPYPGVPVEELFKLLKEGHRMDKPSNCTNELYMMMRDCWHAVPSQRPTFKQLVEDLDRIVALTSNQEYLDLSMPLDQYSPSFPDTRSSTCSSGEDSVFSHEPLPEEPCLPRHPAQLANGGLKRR
T1 sequence (P35968 whole entry, change not shown): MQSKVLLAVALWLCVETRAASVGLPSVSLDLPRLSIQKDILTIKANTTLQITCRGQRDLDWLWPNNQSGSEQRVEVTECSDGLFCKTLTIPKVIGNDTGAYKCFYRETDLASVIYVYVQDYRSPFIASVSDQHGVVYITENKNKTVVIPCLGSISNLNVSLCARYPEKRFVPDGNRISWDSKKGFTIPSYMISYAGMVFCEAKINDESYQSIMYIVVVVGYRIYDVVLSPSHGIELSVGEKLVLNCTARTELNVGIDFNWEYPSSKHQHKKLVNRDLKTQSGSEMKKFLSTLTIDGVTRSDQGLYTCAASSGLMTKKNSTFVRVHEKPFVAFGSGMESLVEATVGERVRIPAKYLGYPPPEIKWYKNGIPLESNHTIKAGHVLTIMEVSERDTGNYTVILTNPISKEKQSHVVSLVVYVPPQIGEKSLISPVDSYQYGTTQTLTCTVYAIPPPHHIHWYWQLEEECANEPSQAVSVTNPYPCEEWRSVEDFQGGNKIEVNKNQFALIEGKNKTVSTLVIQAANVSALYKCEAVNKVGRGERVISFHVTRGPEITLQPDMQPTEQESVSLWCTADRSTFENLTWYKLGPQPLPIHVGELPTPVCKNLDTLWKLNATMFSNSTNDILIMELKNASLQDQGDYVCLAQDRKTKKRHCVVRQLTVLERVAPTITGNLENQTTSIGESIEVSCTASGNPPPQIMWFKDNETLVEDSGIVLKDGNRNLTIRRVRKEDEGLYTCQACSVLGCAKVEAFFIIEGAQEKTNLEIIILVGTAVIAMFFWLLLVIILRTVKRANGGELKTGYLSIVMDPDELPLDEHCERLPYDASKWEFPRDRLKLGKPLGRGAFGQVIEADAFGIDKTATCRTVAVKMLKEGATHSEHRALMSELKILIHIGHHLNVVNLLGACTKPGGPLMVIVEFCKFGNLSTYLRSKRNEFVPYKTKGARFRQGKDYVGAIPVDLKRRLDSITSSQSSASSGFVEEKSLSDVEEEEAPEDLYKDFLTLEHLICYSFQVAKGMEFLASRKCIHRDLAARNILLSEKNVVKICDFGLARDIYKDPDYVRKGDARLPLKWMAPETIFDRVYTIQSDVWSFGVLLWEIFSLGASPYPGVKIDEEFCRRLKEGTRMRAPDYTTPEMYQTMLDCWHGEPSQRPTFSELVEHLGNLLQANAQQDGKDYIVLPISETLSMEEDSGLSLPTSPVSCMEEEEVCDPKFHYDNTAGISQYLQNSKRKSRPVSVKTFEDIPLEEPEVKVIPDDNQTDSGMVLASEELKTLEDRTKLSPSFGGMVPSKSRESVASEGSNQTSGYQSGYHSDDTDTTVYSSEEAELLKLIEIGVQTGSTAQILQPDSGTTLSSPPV

Row | SMILES | BAF3-KDR (MIN IL3) pIC50 [2] | BAF3-FLT3 (MIN IL3) pIC50 [4] | BAF3-FGFR1 (MIN IL3) pIC50 [5] | IC50 [1] [µM] | IC50 [3] [µM] | IC50 [6] [µM] | BAF3-KDR (PLUS IL3) pIC50 [1] | BAF3_FLT3 (PLUS IL3) pIC50 [3] | BAF3-FGFR1 (PLUS IL3) pIC50 [6]
1 | COc1cc(OC)cc(C(CCCN)c2ccc3ncc(-c4cnn(C)c4)nc3c2)c1.Cl (stereo not drawn) [Compound 40] | <5 | <5 | 5 | > 10 | > 10 | > 10 |  |  | 
2 | COc1cc(OC)cc(C(CC#N)c2ccc3ncc(-c4cnn(C)c4)nc3c2)c1 (stereo not drawn) [Compound 18] | <5 | <5 | 5.6 | > 10 | > 10 | > 10 |  |  | 
3 | COc1cc(OC)cc(C(CCN(C)C)c2ccc3ncc(-c4cnn(C)c4)nc3c2)c1.Cl (stereo not drawn) [Compound 21] | <5 | <5 | 5.95 | > 10 | > 10 | > 10 |  |  | 
4 | CN(C)CCC(c1ccccc1)c1ccc2ncc(-c3cnn(C)c3)nc2c1 (stereo not drawn) [Compound 35] | <5 | <5 | <5 | > 10 | > 10 | > 10 |  |  | 
5 | COc1cc(OC)cc(/C(=C/CN(C)C)c2ccc3ncc(-c4cnn(C)c4)nc3c2)c1 [Compound 34] | <5 | <5 | 5.08 | > 10 | > 10 | > 10 |  |  | 
6 | COc1cc(OC)cc(C(CCN2CCCC2=O)c2ccc3ncc(-c4cnn(C)c4)nc3c2)c1.Cl (stereo not drawn) [Compound 7] | 5.13 | <5 | 5.52 | > 10 | > 10 | > 10 |  |  | 
7 | COc1cc(OC)cc(C(CCO)c2ccc3ncc(-c4cnn(C)c4)nc3c2)c1 (stereo not drawn) [Compound 22] | <5 | <5 | 5.66 | > 10 | > 10 | > 10 |  |  | 
8 | COc1cc(OC)cc(C(=O)c2ccc3ncc(-c4cnn(C)c4)nc3c2)c1 [Compound 2] | <5 | <5 | 5.58 | > 10 | > 10 | > 10 |  |  | 
9 | COc1cc(OC)cc(C(CCN)c2ccc3ncc(-c4cnn(C)c4)nc3c2)c1.Cl (stereo not drawn) [Compound 20] | <5 | <5 | 5.86 | > 10 | > 10 | > 10 |  |  | 
10 | COc1cc(OC)cc(C2(c3ccc4ncc(-c5cnn(C)c5)nc4c3)CC2)c1 [Compound 30] | <5 | <5 | 5.23 | > 10 | > 10 | > 10 |  |  | 

More lines, main results first:

Row | BAF3-KDR (MIN IL3) pIC50 [2] | BAF3-FLT3 (MIN IL3) pIC50 [4] | BAF3-FGFR1 (MIN IL3) pIC50 [5] | SMILES | IC50 [1] [µM] | IC50 [3] [µM] | IC50 [6] [µM] | BAF3-KDR (PLUS IL3) pIC50 [1] | BAF3_FLT3 (PLUS IL3) pIC50 [3] | BAF3-FGFR1 (PLUS IL3) pIC50 [6]
11 | <5 | ~5.05 | 6.51 | COc1cc(OC)cc(/C(=C/CNC(C)C)c2ccc3ncc(-c4cnn(C)c4)nc3c2)c1 [Compound 9] | > 10 | > 10 | > 10 |  |  | 
12 | <5 | <5 | 5.14 | COc1cc(OC)cc(C(CCNC(C)C)c2ccc3ncc(-c4cnn(C)c4)nc3c2)c1 (single isomer, unassigned) [Compound 32a] |  |  |  | <5 | <5 | <5
13 | <5 | <5 | 5.16 | COc1cc(OC)cc(C(NCCNC(C)C)c2ccc3ncc(-c4cnn(C)c4)nc3c2)c1.Cl (single isomer, unassigned) [Compound 24] | > 10 | > 10 | > 10 |  |  | 
14 | <5 | <5 | <5 | COc1cc(OC)cc(C(O)(CNCCNC(C)C)c2ccc3ncc(-c4cnn(C)c4)nc3c2)c1 (single isomer, unassigned) [Compound 5] | > 10 | > 10 | > 10 |  |  | 
15 | <5 | <5 | <5 | COc1cc(OC)cc(C(O)(CNCCNC(C)C)c2ccc3ncc(-c4cnn(C)c4)nc3c2)c1 (single isomer, unassigned) [Compound 6] |  |  |  |  |  | 
16 | <5 | <5 | 5.11 | COc1cc(OC)cc(C(CCNCC(F)(F)F)c2ccc3ncc(-c4cnn(C)c4)nc3c2)c1.Cl (stereo not drawn) [Compound 33] | > 10 | > 10 | > 10 |  |  | 
17 | <5 | <5 | 6.18 | COc1cc(OC)cc(C(CCNC(C)C)c2ccc3ncc(-c4cnn(C)c4)nc3c2)c1.Cl (stereo not drawn) [Compound 29, {3-(3,5-Dimethoxy-phenyl)-3-[3-(1-methyl-1H-pyrazol-4-yl)-quinoxalin-6-yl]-propyl}-isopropyl-amine] | > 10 | > 10 | > 10 |  |  | 
18 | <5 | <5 | 6.93 | COc1cc(OC)cc(C(CCNC(C)C)c2ccc3ncc(-c4cnn(C)c4)nc3c2)c1 (single isomer, unassigned) [Compound 19a] | > 10 | > 10 | > 10 |  |  | 
19 | <5 | <5 | <5 | CNCC(O)(c1cc(OC)cc(OC)c1)c1ccc2ncc(-c3cnn(C)c3)nc2c1.Cl (single isomer, unassigned) [Compound 37] | > 10 | > 10 | > 10 |  |  | 
